Source: US8697876B2, “Compositions and methods of synthesis of pyridinolypiperidine 5-HT1F agonists” (Colucid Pharmaceuticals, Inc., priority 2010, dated 2014)

Assay: Solid-state properties of Form A (hygroscopicity)
Format: physicochemical
Settings: crystalline anhydrate

SMILES: CN1CCC(C(=O)c2cccc(NC(=O)c3c(F)cc(F)cc3F)n2)CC1.O=C(O)CCC(=O)O [Form A, 2,4,6-Trifluoro-N-(6-(1-methylpiperidine-4-carbonyl)pyridine-2-yl)benzamide Hemisuccinate]
- hygroscopicity: non-hygroscopic
